pIC50: −log10 of the molar value.
Key:
[1] = system: bladder strips; test: Effects on the bladder muscle in vitro (relaxant effect on bladder strips); design: species or system guinea pigs; details: Cavia porcellus; guinea pig bladder strips; contractions triggered by electrical stimulation or KCl depolarization; read-out: A IC50 (concentration which reduces contraction of bladder strips by 50%)
Method: Effects on the bladder muscle in vitro
In these experiments, the IC50 value denotes the concentration of a substance which reduces contraction by 50%.
Male albino guinea pigs weighing about 400 g are killed painlessly by a blow to the neck and quickly exsanguinated. The abdominal cavity is opened and the bladder is carefully resectioned. It is placed in a Petri dish filled with Krebs solution, and surrounding connective and fatty tissue is removed. Two horizontal strips of tissue are prepared. With the aid of two threads which are attached to both ends of the strips of tissue, the strips are suspended in an organ bath. They are fastened at the bottom to a hook and at the top to an electric force transducer which is able to measure precisely contractions of 0-10 g in strength. The measured contractions are amplified by means of a bridge amplifier and are recorded with a thermal plotter. The signals obtained can also be integrated electronically on another plotter channel in order to quantify in-phase contractions.
(§1) The organ baths are filled with Krebs solution at 37° C. through which an O2 /CO2 mixture is bubbled thoroughly and which has the following composition (mmol/1): NaCl 118.4; KCl 4.7; CaCl2 2.5; KH2 PO4 1.2; MgSO4 1.2; NaHCO3 25; glucose 11.
The strips are stretched with a basic tone of about 0.5 g. After an equilibration time of about 30 minutes, one of the two strips is stimulated electrically every minute using built-in electrodes (period of stimulation 2 seconds, 30 Hz, 0.5 ms pulse width, 10 volts) in order to trigger short-term contractions. The other strip is made to exert in-phase contraction by depolarization (addition of […] KCl to the organ bath). Both the contractions triggered by electrical stimulation and those initiated by depolarization and occurring in the strips of bladder muscle quickly reach a plateau. As soon as this plateau is reached ("100% value"), the test substance is added to the organ bath, initially at 10w concentrations, for example 10^-8 M, and then in increasing doses at regular intervals, until the contractions reduce or the final concentration of 10^-4 M is reached. Each test substance is tested 2-4 times in this way.
(§2) For purposes of evaluation, the height of the contractions registered on the plotter paper is measured for each experiment after the action of each test concentration added. The IC50 value can be calculated in this way in relation to the original height of contractions before the addition of substance (100%). All of the IC50 values are shown in column A of Table 1.

[2] = system: rings of aorta; test: Effects on vessel muscle in vitro (aorta rings, KCl depolarization); design: species or system rats; details: rat aorta rings contracted with 25 mM KCl; read-out: B IC50 (rings of aorta)
Method: Effects on vessel muscle in vitro
Male rats weighing about 300 g are killed painlessly by a blow to the neck and quickly exsanguinated. The thoracic cavity is opened and the aorta is carefully resectioned. It is placed in a Petri dish filled with Krebs solution, and surrounding connective and fatty tissue is removed. Two rings are prepared. The rings are each suspended in an organ bath. They are attached at the bottom to a hook and at the top to an electrical force transducer which is able to measure precisely contractions of 0-10 grams in strength. The measured contractions are amplified by means of a bridge amplifier and recorded with a thermal plotter.
as §1
The rings are stretched with a basic tone of about 0.5 g. After an equilibration time of about 30 minutes, the rings are caused to undergo contraction by depolarization (addition of 25 mM KCl to the organ bath). The contractions of the rings of aorta, triggered by the depolarization, quickly reach a plateau. As soon as this plateau is reached ("100% value"), the test substance is added to the organ bath, initially at low concentrations, for example 10^-8 M, and then in increasing doses at regular intervals, until the contractions reduce or the final concentration of 10^-4 M is reached. Each test substance is tested 2-4 times in this way.
as §2, with “(100%).” for “(100%). All of the”, “B” for “A”

[3] = system: arterial blood pressure, conscious rat; test: Effects on blood pressure in vivo, conscious rat; design: species or system Sprague-Dawley rats
Method: Effects on blood pressure in vivo
The rats were fasted overnight before the day of the experiment.
On the day of experiment, the rats were brought into the laboratory and their blood pressure and heart rate was recorded over about 30 minutes. The test substances, suspended in 0.5% methylcellulose, were then administered perorally via a stomach tube (volume: 3 ml/kg of body weight) and blood pressure and heart rate were measured over the next 6 hours. The percentage changes in the measured values in relation to the initial values were calculated and were determined for groups of 3-4 similarly treated animals.

| pIC50 [1] | pIC50 [2] | SMILES | Reduction in diastolic pressure, % of initial value ([3]; 1 mg/kg peroral, 15 min) | Reduction in diastolic pressure, % of initial value ([3]; 1 mg/kg peroral, 30 min) | Reduction in diastolic pressure, % of initial value ([3]; 1 mg/kg peroral, 60 min) | Reduction in diastolic pressure, % of initial value ([3]; 1 mg/kg peroral, 120 min) | Reduction in diastolic pressure, % of initial value ([3]; 6 mg/kg peroral, 15 min) | Reduction in diastolic pressure, % of initial value ([3]; 6 mg/kg peroral, 30 min) | Reduction in diastolic pressure, % of initial value ([3]; 6 mg/kg peroral, 60 min) | Reduction in diastolic pressure, % of initial value ([3]; 6 mg/kg peroral, 120 min) | Reduction in diastolic pressure, % of initial value ([3]; 18 mg/kg peroral, 15 min) | Reduction in diastolic pressure, % of initial value ([3]; 18 mg/kg peroral, 30 min) | Reduction in diastolic pressure, % of initial value ([3]; 18 mg/kg peroral, 60 min) | Reduction in diastolic pressure, % of initial value ([3]; 18 mg/kg peroral, 120 min) |
| --- | --- | --- | --- | --- | --- | --- | --- | --- | --- | --- | --- | --- | --- | --- |
| 6.00 | 7.19 | CC1(C)Oc2ccc(C#N)cc2C(N2CCCC2=O)C1O (stereo not shown) [V, cromakalim, reference compound] | 53 % of initial value | 49 % of initial value | 40 % of initial value | 26 % of initial value |  |  |  |  |  |  |  |  |
| 5.77 | 5.92 | CC(O)(C(=O)Nc1ccc(S(=O)(=O)c2ccccc2)s1)C(F)(F)F (stereo not shown) [Example 4, N-[5-(Phenylsulfonyl)thien-2-yl]-3,3,3-trifluoro-2-hydroxy-2-methylpropanamide] |  |  |  |  | 1 % of initial value | 5 % of initial value | 4 % of initial value | 6 % of initial value | 0 % of initial value | 8 % of initial value | 10 % of initial value | 15 % of initial value |
| 4.30 | 5.00 | CC(O)(C(=O)Nc1nnc(C(=O)c2ccccc2)s1)C(F)(F)F (stereo not shown) [Example 3, N-[5-(Phenylcarbonyl)-1,3,4-thiadiazol-2-yl]-3,3,3-trifluoro-2-hydroxy-2-methylpropanamide] |  |  |  |  |  | 3 % of initial value | 2 % of initial value | 4 % of initial value |  |  |  |  |
| 4.00 | 5.60 | CC(O)(C(=O)Nc1ccc(C(=O)c2ccccc2)s1)C(F)(F)F (stereo not shown) [Example 1, N-[5-(Phenylcarbonyl)thien-2-yl]-3,3,3-tri-fluoro-2-hydroxy-2-methylpropanamide] |  |  |  |  |  | 3 % of initial value | 2 % of initial value | 4 % of initial value |  |  |  |  |
| 4.00 | 4.70 | CC(O)(C(=O)Nc1ncc(C(=O)c2ccccc2)s1)C(F)(F)F (stereo not shown) [Example 2, N-[5-(Phenylcarbonyl)thiazol-2-yl]-3,3,3-trifluoro-2-hydroxy-2-methylpropanamide] |  |  |  |  | 2 % of initial value | 8 % of initial value | 5 % of initial value |  |  |  |  |  |
